Consider seven compounds from ChEMBL document CHEMBL1145498, “A systematic interaction map of validated kinase inhibitors with Ser/Thr kinases” (Proc Natl Acad Sci U S A, 2007).

The target in assay [1] is 5'-AMP-activated protein kinase catalytic subunit alpha-2 (Homo sapiens) (UniProt P54646).
Assay [2] has as its target Calcium/calmodulin-dependent protein kinase type 1D (Homo sapiens) (UniProt Q8IU85).
Assay [3] has as its target Calcium/calmodulin-dependent protein kinase type 1G (Homo sapiens) (UniProt Q96NX5).
Assay [4] addresses Calcium/calmodulin-dependent protein kinase type II subunit delta (Homo sapiens) (UniProt Q13557).
Assay [5] concerns the target T1, Calcium/calmodulin-dependent protein kinase type IV (Homo sapiens) (UniProt Q16566).
T1 sequence (whole entry): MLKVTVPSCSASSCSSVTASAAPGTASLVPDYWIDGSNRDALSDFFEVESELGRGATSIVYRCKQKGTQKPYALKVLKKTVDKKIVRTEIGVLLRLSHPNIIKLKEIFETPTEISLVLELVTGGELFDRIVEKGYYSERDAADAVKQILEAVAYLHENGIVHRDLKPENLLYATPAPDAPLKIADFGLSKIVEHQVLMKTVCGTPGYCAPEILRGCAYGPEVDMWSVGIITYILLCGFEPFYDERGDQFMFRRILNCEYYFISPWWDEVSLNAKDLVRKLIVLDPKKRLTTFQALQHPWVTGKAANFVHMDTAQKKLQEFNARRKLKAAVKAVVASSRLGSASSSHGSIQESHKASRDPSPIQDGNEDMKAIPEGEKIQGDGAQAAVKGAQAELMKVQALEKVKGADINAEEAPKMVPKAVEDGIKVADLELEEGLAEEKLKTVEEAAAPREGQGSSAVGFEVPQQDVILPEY

For assay [6], the target named is Calcium/calmodulin-dependent protein kinase kinase 2 (Homo sapiens, UniProt Q96RR4).
Chain of Calcium/calmodulin-dependent protein kinase kinase 2 (Q96RR4 2-588 limits assumed): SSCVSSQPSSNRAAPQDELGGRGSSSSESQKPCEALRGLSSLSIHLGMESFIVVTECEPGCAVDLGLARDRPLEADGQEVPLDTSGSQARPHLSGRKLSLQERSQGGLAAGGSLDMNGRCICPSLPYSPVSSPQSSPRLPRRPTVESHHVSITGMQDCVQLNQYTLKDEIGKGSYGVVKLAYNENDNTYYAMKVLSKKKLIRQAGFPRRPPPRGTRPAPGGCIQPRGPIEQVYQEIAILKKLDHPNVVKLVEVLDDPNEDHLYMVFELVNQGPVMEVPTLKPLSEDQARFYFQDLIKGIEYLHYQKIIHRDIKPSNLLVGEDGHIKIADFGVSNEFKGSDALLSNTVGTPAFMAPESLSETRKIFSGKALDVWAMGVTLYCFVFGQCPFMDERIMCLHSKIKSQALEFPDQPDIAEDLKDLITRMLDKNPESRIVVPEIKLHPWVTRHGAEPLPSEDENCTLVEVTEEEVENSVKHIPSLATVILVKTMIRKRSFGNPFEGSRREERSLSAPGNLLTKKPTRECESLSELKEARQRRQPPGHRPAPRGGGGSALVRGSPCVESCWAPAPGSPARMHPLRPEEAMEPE
Assay [7] has as its target Casein kinase I isoform gamma-3 (Homo sapiens) (UniProt Q9Y6M4).
Assay [8] deals with Death-associated protein kinase 3 (Homo sapiens) (UniProt O43293).
Chain of Death-associated protein kinase 3 (Homo sapiens) (O43293 whole entry, looked up): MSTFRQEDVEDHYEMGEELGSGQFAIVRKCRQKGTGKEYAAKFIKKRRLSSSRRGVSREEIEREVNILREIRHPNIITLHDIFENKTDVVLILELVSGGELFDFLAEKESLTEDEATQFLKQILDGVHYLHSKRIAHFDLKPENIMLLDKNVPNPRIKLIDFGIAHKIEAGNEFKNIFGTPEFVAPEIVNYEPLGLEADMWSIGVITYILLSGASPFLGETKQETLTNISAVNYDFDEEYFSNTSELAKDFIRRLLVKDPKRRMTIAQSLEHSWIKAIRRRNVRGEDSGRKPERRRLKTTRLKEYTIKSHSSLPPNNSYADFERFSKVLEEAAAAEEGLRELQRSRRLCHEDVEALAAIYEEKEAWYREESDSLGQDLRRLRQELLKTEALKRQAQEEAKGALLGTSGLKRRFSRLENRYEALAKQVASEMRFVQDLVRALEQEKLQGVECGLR
Assay [9] addresses Dual specificity mitogen-activated protein kinase kinase 2 (Homo sapiens, UniProt P36507).
In assay [10] the target is T2, Dual specificity mitogen-activated protein kinase kinase 6 (Homo sapiens) (UniProt P52564).
T2 sequence (whole entry): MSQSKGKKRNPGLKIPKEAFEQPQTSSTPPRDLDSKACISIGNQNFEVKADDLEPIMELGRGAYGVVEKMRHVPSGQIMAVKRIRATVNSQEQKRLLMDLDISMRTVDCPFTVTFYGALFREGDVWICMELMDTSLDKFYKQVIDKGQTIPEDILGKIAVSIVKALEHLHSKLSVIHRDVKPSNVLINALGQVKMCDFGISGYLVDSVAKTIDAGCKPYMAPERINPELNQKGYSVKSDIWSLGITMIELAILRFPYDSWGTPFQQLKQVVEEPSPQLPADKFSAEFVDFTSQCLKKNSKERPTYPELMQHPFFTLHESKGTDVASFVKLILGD

Assay [11] concerns the target Mitogen-activated protein kinase 3 (Homo sapiens, UniProt P27361).
In assay [12] the target is Serine/threonine-protein kinase Nek6 (Homo sapiens) (UniProt Q9HC98).
Chain of Serine/threonine-protein kinase Nek6 (Homo sapiens) (Q9HC98 whole entry): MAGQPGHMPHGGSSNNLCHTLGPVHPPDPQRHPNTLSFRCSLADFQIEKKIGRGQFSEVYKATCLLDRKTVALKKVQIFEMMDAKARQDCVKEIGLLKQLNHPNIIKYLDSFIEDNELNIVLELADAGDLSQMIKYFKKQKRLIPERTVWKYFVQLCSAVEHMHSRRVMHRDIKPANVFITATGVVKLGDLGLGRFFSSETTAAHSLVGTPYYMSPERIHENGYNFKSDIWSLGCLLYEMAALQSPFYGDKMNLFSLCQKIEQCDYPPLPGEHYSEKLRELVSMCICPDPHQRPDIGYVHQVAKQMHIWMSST
For assay [13], the target named is Cyclin-dependent kinase 16 (Homo sapiens) (UniProt Q00536).
Chain of Cyclin-dependent kinase 16 (Homo sapiens) (Q00536 whole entry): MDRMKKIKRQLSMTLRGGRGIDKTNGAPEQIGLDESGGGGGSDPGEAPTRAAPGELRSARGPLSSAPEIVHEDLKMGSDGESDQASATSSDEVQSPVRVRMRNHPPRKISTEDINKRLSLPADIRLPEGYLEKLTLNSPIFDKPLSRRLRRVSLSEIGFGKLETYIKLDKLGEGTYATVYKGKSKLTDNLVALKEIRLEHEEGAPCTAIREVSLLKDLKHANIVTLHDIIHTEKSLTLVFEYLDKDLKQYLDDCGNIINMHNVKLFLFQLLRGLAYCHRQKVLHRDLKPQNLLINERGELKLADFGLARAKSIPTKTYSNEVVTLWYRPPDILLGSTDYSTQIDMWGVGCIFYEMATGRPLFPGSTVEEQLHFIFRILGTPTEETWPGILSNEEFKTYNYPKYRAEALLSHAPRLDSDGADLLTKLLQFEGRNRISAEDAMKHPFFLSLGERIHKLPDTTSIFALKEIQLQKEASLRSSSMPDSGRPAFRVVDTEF
Assay [14] deals with Serine/threonine-protein kinase PLK1 (Homo sapiens) (UniProt P53350).
In assay [15] the target is Serine/threonine-protein kinase RIO2 (Homo sapiens) (UniProt Q9BVS4).
Chain of Serine/threonine-protein kinase RIO2 (Homo sapiens) (Q9BVS4 whole entry, looked up): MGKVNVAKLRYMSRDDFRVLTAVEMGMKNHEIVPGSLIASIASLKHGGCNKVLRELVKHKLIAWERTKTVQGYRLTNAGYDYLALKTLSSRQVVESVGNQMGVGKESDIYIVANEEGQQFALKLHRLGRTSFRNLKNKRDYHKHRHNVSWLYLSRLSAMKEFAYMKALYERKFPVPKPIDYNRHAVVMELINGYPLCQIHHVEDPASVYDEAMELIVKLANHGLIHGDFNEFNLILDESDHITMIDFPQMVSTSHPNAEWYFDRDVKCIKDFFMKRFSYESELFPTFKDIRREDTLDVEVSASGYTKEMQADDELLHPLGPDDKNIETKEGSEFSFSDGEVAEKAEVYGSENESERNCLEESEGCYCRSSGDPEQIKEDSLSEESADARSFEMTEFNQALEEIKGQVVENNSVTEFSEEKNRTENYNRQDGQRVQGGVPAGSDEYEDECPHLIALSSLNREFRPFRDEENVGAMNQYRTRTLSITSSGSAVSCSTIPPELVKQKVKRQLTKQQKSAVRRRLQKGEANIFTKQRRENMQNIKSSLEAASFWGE
The target in assay [16] is Ribosomal protein S6 kinase alpha-3 (Homo sapiens) (UniProt P51812).
Chain of Ribosomal protein S6 kinase alpha-3 (Homo sapiens) (P51812 whole entry): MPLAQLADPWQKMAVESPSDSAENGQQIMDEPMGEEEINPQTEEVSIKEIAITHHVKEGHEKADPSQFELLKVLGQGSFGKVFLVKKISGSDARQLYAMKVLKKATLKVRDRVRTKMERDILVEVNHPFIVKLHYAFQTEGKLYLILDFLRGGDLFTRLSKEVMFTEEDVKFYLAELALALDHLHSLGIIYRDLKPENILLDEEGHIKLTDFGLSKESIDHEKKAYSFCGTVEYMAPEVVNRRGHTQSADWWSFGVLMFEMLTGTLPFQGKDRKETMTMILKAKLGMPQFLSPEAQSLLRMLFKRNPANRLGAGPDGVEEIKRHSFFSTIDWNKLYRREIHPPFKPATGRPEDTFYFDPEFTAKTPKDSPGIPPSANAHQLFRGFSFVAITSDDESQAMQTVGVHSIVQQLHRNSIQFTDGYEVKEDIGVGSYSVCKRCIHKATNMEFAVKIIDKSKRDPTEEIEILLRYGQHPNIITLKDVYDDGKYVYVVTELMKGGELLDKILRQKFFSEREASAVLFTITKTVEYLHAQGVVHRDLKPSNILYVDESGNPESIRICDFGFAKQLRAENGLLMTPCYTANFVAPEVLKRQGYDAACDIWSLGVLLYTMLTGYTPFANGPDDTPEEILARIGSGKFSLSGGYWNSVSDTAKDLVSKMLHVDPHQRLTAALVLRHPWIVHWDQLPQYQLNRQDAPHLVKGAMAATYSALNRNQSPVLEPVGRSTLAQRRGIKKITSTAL
In assay [17] the target is Serine/threonine-protein kinase 38 (Homo sapiens) (UniProt Q15208).
Chain of Serine/threonine-protein kinase 38 (Homo sapiens) (Q15208 2-465 limits assumed): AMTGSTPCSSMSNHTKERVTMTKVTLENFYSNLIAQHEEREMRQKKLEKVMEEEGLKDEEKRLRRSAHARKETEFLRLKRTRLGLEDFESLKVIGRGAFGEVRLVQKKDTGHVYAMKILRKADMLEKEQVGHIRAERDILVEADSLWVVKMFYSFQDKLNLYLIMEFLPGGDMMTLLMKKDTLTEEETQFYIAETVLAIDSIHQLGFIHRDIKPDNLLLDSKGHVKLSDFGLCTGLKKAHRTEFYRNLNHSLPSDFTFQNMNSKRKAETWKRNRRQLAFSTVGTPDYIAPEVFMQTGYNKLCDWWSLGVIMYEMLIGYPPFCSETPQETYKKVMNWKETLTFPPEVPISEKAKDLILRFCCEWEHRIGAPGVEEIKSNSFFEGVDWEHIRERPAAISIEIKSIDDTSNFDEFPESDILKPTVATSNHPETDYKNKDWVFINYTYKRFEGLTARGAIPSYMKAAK
The target in assay [18] is Serine/threonine-protein kinase 26 (Homo sapiens) (UniProt Q9P289).
The target of assay [19] is T3, Lymphokine-activated killer T-cell-originated protein kinase (Homo sapiens) (UniProt Q96KB5).
T3 sequence (whole entry): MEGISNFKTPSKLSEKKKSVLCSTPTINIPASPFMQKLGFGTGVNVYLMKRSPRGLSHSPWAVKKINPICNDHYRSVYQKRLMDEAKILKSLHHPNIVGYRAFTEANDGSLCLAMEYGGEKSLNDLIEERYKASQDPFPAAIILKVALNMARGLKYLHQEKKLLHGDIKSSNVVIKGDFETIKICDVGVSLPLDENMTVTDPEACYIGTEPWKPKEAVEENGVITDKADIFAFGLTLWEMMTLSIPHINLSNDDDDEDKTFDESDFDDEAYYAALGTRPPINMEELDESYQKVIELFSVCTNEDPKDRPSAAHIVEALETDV

Assay [20] addresses T4, Serine/threonine-protein kinase VRK3 (Homo sapiens) (UniProt Q8IV63).
T4 sequence (whole entry): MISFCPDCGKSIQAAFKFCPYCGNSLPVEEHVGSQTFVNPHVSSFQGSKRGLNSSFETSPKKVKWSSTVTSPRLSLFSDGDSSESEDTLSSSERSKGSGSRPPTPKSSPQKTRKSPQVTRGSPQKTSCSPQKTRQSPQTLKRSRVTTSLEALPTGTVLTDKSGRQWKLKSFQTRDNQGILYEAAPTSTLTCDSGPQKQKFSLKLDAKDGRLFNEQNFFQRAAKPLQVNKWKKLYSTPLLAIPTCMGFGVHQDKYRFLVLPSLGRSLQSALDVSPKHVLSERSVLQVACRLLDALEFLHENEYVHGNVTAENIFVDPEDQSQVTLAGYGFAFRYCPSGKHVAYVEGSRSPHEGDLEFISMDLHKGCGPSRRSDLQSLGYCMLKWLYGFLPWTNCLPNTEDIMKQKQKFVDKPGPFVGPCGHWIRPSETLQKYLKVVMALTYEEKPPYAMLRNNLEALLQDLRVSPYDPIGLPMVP

Chain of Mitogen-activated protein kinase 3 (P27361 whole entry): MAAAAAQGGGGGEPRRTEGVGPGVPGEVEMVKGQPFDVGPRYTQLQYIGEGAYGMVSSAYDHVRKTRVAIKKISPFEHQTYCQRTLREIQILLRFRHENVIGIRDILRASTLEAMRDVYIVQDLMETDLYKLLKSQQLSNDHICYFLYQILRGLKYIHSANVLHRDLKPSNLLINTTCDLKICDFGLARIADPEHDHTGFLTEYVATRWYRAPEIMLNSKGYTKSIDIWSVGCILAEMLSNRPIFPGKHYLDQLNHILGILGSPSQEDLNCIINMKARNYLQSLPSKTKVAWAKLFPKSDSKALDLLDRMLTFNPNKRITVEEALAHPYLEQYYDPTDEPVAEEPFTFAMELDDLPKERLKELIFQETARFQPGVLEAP
Chain of Casein kinase I isoform gamma-3 (Homo sapiens) (Q9Y6M4 whole entry, looked up, canonical isoform): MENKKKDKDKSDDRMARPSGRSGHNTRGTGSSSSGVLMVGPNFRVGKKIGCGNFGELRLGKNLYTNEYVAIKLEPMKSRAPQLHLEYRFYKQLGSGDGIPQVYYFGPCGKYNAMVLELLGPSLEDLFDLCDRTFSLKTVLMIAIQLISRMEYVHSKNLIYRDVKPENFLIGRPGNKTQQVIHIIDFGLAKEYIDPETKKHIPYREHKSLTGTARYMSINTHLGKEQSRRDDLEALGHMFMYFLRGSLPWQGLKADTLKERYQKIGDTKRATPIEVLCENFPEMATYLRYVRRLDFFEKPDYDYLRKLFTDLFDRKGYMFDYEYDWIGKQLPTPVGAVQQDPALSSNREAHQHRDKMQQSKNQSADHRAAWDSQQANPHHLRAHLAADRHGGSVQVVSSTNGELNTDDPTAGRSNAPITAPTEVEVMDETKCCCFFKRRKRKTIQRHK
Chain of 5'-AMP-activated protein kinase catalytic subunit alpha-2 (Homo sapiens) (P54646 whole entry, looked up): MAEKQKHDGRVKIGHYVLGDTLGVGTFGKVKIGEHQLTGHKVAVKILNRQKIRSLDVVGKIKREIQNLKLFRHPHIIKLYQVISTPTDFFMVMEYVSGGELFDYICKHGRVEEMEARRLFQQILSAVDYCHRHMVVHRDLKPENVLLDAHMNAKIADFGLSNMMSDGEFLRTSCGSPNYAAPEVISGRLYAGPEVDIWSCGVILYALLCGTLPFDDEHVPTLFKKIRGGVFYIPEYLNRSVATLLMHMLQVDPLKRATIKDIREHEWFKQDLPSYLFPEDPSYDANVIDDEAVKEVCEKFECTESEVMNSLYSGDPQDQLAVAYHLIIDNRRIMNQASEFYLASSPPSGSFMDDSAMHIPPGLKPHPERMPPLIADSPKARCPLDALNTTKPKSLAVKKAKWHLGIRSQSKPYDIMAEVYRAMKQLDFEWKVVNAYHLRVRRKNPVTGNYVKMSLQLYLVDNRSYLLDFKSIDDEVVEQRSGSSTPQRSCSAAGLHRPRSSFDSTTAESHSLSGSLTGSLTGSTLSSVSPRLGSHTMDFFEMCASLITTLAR

Usually ΔTm stands for the shift of the melting midpoint relative to a reference. Turning to `NCCNc1ncc(C(N)=O)c(Nc2cccc(C(F)(F)F)c2)n1`, the ΔTm in assay [1] is 0.3 °C; in [2], 5.1 °C; in assay [3] it was 5.7 °C; in assay [4], -0.6 °C; in [5], 0.9 °C; in assay [6], 0.6 °C. For the same compound, the ΔTm is 5.9 °C in [7]; 3.2 °C in assay [8]; 5.1 °C in assay [9]; 1.6 °C in assay [10]; 0.9 °C in assay [11]; 2 °C in assay [12]. Moreover, the ΔTm in [13] turned out to be 0.1 °C; in [14] it was 0.7 °C; in assay [15] it was 4.7 °C; in [16], 3.3 °C; in assay [17], 2.5 °C; in assay [18] it was 0.1 °C. Further, the ΔTm in [19] was 0.5 °C.
With `O=C1Nc2ccccc2/C1=C\c1ccc[nH]1`, the shift in melting temperature (ΔTm) was 3.2 °C in assay [1]; 1.3 °C in [2]; 1.9 °C in [3]; -0.5 °C in assay [4]; 0.6 °C in [5]; 4.7 °C in [6]. The ΔTm in [7] was 1.8 °C; in [8], -0.2 °C; in assay [9] it was 2.4 °C; in [10], 3.4 °C; in assay [11], 0.3 °C; in assay [12] it was 0 °C. The ΔTm in assay [13] is 1.7 °C; in assay [14], -0.6 °C; in assay [15], 3 °C; in assay [17], 2.7 °C; in assay [18], 3.9 °C; in assay [19] it was -0.5 °C. Also, the ΔTm in [20] was determined as 0.1 °C.
In the case of `COc1cc2ncnc(Nc3ccc(NC(=O)c4ccccc4)cc3)c2cc1OC` [ANILINOQUINAZOLINE1], the ΔTm amounted to 0.8 °C in assay [1]; 0.7 °C in assay [2]; 2 °C in [3]; 0.4 °C in assay [4]; 0.9 °C in assay [5]; 1.3 °C in assay [6]. In addition, the ΔTm in assay [7] worked out at 0.3 °C; in assay [8] it was 0.5 °C; in [9], 0 °C; in assay [10], 0.2 °C; in assay [11] it was 0.4 °C; in [12], 0.5 °C. The ΔTm is -1.4 °C in assay [13]; -0.5 °C in [14]; 0.6 °C in assay [15]; 5.5 °C in assay [16]; 0.9 °C in assay [17]; 0 °C in assay [18]. In addition, the ΔTm in assay [19] came to 0.3 °C.
As for `Cc1[nH]c(/C=C2\C(=O)Nc3ccc(S(=O)(=O)N(C)c4cccc(Cl)c4)cc32)c(C)c1C(=O)N1CCN(C)CC1`, the ΔTm in assay [1] is 4 °C; in [2], 0.4 °C; in assay [3], 1.7 °C; in [4] it was 0.5 °C; in assay [5], -0.1 °C; in assay [6], 1.2 °C. Besides, the ΔTm in assay [7] worked out at 1.1 °C; in [8] it was 2.6 °C; in assay [9] it was 1 °C; in assay [10] it was 3 °C; in assay [11], 0.1 °C; in assay [12] it was 0.4 °C. Also, the shift in melting temperature (ΔTm) in assay [13] is -0.6 °C; in assay [14] it was 1.9 °C; in assay [15], 1.4 °C; in assay [16] it was 7.7 °C; in assay [17], 4.2 °C; in assay [18] it was -0.2 °C. Besides, the ΔTm in assay [19] came out at 0.1 °C.
With `CCCNC(=O)Nc1ccc(Oc2ncnc3cc(OC)c(OC)cc23)cc1Cl` [KRN-633], the ΔTm was 2.1 °C in [1]; 0.5 °C in assay [2]; 1 °C in [3]; 0.3 °C in [4]; 0.9 °C in [5]; 0.7 °C in [6]. Also, the ΔTm in [7] is -3.7 °C; in assay [8] it was 1.3 °C; in assay [9], 0.2 °C; in assay [10], 0 °C; in assay [11], 0.5 °C; in assay [12], 0.8 °C. In addition, the ΔTm in assay [13] was -0.1 °C; in assay [14], 0.1 °C; in assay [15], 0.2 °C; in assay [16], 5.8 °C; in assay [17] it was 1.6 °C; in assay [18], -0.1 °C. Further, the shift in melting temperature (ΔTm) in assay [19] is 0.2 °C.
With `COc1cc2c(cc1OC)-c1n[nH]c(Nc3cccc(F)c3)c1C2`, the ΔTm in [1] was -0.3 °C; in [2], 0.3 °C; in assay [3], 1.6 °C; in assay [4], 1.2 °C; in [5], 0.5 °C; in assay [6], 1.6 °C. The ΔTm in assay [7] was found to be 0.8 °C; in assay [8], 0.2 °C; in assay [9], 0.7 °C; in assay [10] it was 0.3 °C; in assay [11] it was 0.6 °C; in [12], 0.1 °C. Further, the ΔTm in assay [13] is -0.3 °C; in assay [14], -0.2 °C; in assay [15], -0.2 °C; in [16], 2.2 °C; in [17], 2.4 °C; in assay [18] it was -0.2 °C. For the same compound, the ΔTm in assay [19] was 0.2 °C.
`CCCCc1c(-c2ccc(O)cc2)[nH]c2nccnc12` [ALOISINE A]: the ΔTm in assay [1] was determined as 2.2 °C; in assay [2], 1.2 °C; in assay [3], 0.6 °C; in [4] it was 1.8 °C; in assay [5], 0.4 °C; in assay [6], 1.8 °C. Besides, the ΔTm in assay [7] was 2.5 °C; in assay [8], 2.3 °C; in assay [9] it was 2.1 °C; in [10], 0.7 °C; in assay [11], 0.5 °C; in [12], 2.9 °C. Further, the ΔTm is -0.5 °C in [13]; 2.8 °C in [14]; -1.8 °C in assay [15]; 3 °C in assay [16]; 4 °C in assay [17]; 4.1 °C in assay [18]. For the same compound, the ΔTm in assay [19] is 0.7 °C.
